Assay results: US20020026053A1, “Novel 3-(substituted) -2- indolinones compounds and use thereof as inhibitors of protein kinase activity” (priority 1997, published 2002)

target: T1, EGFR (Homo sapiens, UniProt P00533); experiment: Biochemical EGFR Assay; parameters: concentration or dose not given beside the values
T1 construct: endogenous in cells; host or cells: A431 cells (lysate, captured with SUMO1 anti-EGFR antibody)
How it was run: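 Readout is ABTS absorbance at 410 nm after anti-phosphotyrosine and HRP-antibody detection of EGFR autophosphorylation. The kinase was immunocaptured from A431 lysate, exposed 30 min to test compound diluted 1:10 in TBS, then phosphorylated for 5 min with ATP/MnCl2 before an EDTA stop.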

T1 sequence (P00533 25-1210): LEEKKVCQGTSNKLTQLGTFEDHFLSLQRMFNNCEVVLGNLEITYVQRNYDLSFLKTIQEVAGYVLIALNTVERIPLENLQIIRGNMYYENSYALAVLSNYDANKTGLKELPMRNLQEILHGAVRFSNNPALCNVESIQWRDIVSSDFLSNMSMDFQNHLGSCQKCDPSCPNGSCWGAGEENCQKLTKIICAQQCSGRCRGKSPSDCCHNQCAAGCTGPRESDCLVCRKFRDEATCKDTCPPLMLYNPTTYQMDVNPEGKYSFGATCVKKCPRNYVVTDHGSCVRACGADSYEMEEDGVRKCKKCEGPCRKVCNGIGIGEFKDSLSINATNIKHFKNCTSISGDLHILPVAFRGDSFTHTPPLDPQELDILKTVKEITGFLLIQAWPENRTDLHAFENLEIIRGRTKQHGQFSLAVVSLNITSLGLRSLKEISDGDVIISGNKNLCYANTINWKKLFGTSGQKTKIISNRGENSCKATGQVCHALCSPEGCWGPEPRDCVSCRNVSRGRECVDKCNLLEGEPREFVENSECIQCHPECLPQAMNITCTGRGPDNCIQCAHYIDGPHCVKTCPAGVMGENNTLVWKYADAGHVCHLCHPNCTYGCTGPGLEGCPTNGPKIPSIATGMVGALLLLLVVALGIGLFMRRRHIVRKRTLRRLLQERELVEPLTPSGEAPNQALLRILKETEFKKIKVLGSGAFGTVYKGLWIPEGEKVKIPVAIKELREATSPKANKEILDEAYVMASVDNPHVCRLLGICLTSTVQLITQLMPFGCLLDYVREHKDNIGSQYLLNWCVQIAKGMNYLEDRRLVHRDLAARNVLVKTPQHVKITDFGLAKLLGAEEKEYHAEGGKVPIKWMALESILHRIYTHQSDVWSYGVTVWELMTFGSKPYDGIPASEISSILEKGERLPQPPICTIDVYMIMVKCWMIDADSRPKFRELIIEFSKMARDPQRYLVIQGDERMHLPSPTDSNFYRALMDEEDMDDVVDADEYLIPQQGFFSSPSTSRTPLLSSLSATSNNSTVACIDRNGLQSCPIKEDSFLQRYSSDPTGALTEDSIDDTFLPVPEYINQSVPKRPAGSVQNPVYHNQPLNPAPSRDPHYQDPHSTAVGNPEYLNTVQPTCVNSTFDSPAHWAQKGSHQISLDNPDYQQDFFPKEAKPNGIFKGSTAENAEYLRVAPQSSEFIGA

SMILES | Biochem EGFR % Inhibition (P.167) [%]
O=C1Nc2c(Br)cc(Br)cc2C1=Cc1ccccc1Cl [10736/A11] | −29.3
Cc1cccc(C=C2C(=O)Nc3ccc(I)cc32)c1 [10736/B04] | −9.0
COc1cccc(C=C2C(=O)Nc3ccc(I)cc32)c1 [10736/B10] | 15.6
Cc1c(Br)ccc2c1C(=Cc1ccccc1F)C(=O)N2 [10736/C08] | −0.5
CCc1ccc(C=C2C(=O)Nc3ccc(S(=O)(=O)Nc4ccc(C(F)(F)F)cc4)cc32)cc1 [10736/E09] | −40.1
Cc1ccc(C=C2C(=O)Nc3ccc(S(=O)(=O)N4CCOCC4)cc32)cc1 [10736/F05] | −6.0
O=C1Nc2ccc(S(=O)(=O)N3CCOCC3)cc2C1=Cc1ccc(Cl)cc1 [10736/F02] | −4.5
O=C1Nc2c(Br)cc(Br)cc2C1=Cc1ccccc1C(F)(F)F [10736/A03] | 24.2
CNS(=O)(=O)c1ccc2c(c1)C(=Cc1cccc(C)c1)C(=O)N2 [10736/D04] | 24.9
Cc1ccc(C=C2C(=O)Nc3ccc(Br)c(C)c32)cc1 [10736/C05] | 16.8
Cc1c(Br)cc(Br)c2c1C(=Cc1ccc(F)cc1Cl)C(=O)N2 [10719/H09] | −33.5
Cc1c(Br)cc(Br)c2c1C(=Cc1cc(F)cc(F)c1)C(=O)N2 [10735/H04] | −9.3
Cc1c(Br)ccc2c1C(=Cc1cccc(F)c1)C(=O)N2 [10736/C07] | −8.1
CNS(=O)(=O)c1ccc2c(c1)C(=Cc1cccc(Cl)c1)C(=O)N2 [10736/D06] | 29.7
Cc1c(Br)ccc2c1C(=Cc1ccc(Cl)cc1)C(=O)N2 [10736/C02] | −47.1
Cc1c(Br)cc(Br)c2c1C(=Cc1ccccc1C#N)C(=O)N2 [10735/H07] | 3.8
CNS(=O)(=O)c1ccc2c(c1)C(=Cc1cccc(F)c1)C(=O)N2 [10736/D07] | 47.1
O=C1Nc2ccc(S(=O)(=O)N3CCOCC3)cc2C1=Cc1ccccc1F [10736/F08] | −2.8
O=C1Nc2ccc(I)cc2C1=Cc1ccccc1Cl [10736/B11] | −3.7
O=C1Nc2ccc(S(=O)(=O)Nc3ccc(C(F)(F)F)cc3)cc2C1=Cc1cccc(F)c1 [10736/E07] | −26.7
Cc1c(Br)cc(Br)c2c1C(=Cc1ccc(O)cc1)C(=O)N2 [10719/H07] | −2.8
O=C1Nc2c(Br)cc(Br)cc2C1=Cc1ccccc1F [10736/A08] | 27.6
COc1cccc(C=C2C(=O)Nc3ccc(S(=O)(=O)Nc4ccc(C(F)(F)F)cc4)cc32)c1 [10736/E10] | −24.0
O=C1Nc2ccc(CCCl)cc2C1=Cc1ccc(Cl)cc1Cl [10735/G10] | 4.5
Cc1cccc(C=C2C(=O)Nc3ccc(S(=O)(=O)N4CCOCC4)cc32)c1 [10736/F04] | −21.7

SMILES | Biochem EGFR % Inhibition (P.167) [%]
Cc1c(Br)cc(Br)c2c1C(=Cc1c(F)cc(F)cc1F)C(=O)N2 [10720/H02] | 17.0
Cc1c(Br)cc(Br)c2c1C(=Cc1ccc(-c3ccccc3)cc1)C(=O)N2 [10735/H11] | −4.2
Cc1ccc(C=C2C(=O)Nc3ccc(S(=O)(=O)Nc4ccc(C(F)(F)F)cc4)cc32)cc1 [10736/E05] | 17.0
O=C1Nc2ccc(I)cc2C1=Cc1ccc(Cl)cc1 [10736/B02] | −38.8
O=C1Nc2ccc(I)cc2C1=Cc1ccccc1F [10736/B08] | 8.4
O=C1Nc2ccc(S(=O)(=O)Nc3ccc(C(F)(F)F)cc3)cc2C1=Cc1cccc(Cl)c1 [10736/E06] | 47.3
Cc1c(Br)cc(Br)c2c1C(=Cc1ccc(Cl)cc1Cl)C(=O)N2 [10735/H10] | −16.3
COc1cc(O)ccc1C=C1C(=O)Nc2c(Br)cc(Br)c(C)c21 [10720/H03] | −13.9
O=C1Nc2ccc(S(=O)(=O)N3CCOCC3)cc2C1=Cc1cccc(Cl)c1 [10736/F06] | 25.1
O=C1Nc2c(Br)cc(Br)cc2C1=Cc1ccc(Cl)cc1 [10736/A02] | 7.7
COc1cccc(C=C2C(=O)Nc3ccc(Br)c(C)c32)c1 [10736/C10] | −0.3
Cc1ccc(C=C2C(=O)Nc3ccc(I)cc32)cc1 [10736/B05] | 14.9
O=C1Nc2ccc(S(=O)(=O)N3CCOCC3)cc2C1=Cc1ccccc1C(F)(F)F [10736/F03] | 94.0
Cc1ccc(C=C2C(=O)Nc3c(Br)cc(Br)cc32)cc1 [10736/A05] | 80.1
Cc1c(Br)cc(Br)c2c1C(=Cc1ccc(F)cc1C(F)(F)F)C(=O)N2 [10719/H11] | −12.0
Cc1cccc(C=C2C(=O)Nc3c(Br)cc(Br)cc32)c1 [10736/A04] | 14.1
CCc1ccc(C=C2C(=O)Nc3ccc(S(=O)(=O)N4CCOCC4)cc32)cc1 [10736/F09] | 6.3
CCc1ccc(C=C2C(=O)Nc3ccc(Br)c(C)c32)cc1 [10736/C09] | 4.6
Cc1c(Br)cc(Br)c2c1C(=Cc1cccc(C(F)(F)F)c1)C(=O)N2 [10735/H05] | −0.3
Cc1c(Br)cc(Br)c2c1C(=Cc1c(F)cccc1F)C(=O)N2 [10735/H08] | 6.8
O=C1Nc2ccc(S(=O)(=O)Nc3ccc(C(F)(F)F)cc3)cc2C1=Cc1ccc(Cl)cc1 [10736/E02] | 2.0
Cc1c(Br)ccc2c1C(=Cc1ccccc1C(F)(F)F)C(=O)N2 [10736/C03] | 0.3
O=C1Nc2ccc(I)cc2C1=Cc1ccccc1C(F)(F)F [10736/B03] | −51.7
CNS(=O)(=O)c1ccc2c(c1)C(=Cc1ccccc1F)C(=O)N2 [10736/D08] | 90.9
O=C1Nc2ccc(S(=O)(=O)N3CCOCC3)cc2C1=Cc1cccc(F)c1 [10736/F07] | −12.1

SMILES | Biochem EGFR % Inhibition (P.167) [%]
O=C1Nc2c(Br)cc(Br)cc2C1=Cc1cccc(Cl)c1 [10736/A06] | 34.4
Cc1c(Br)cc(Br)c2c1C(=Cc1ccc(F)c(F)c1)C(=O)N2 [10735/H03] | −1.0
CNS(=O)(=O)c1ccc2c(c1)C(=Cc1ccccc1Cl)C(=O)N2 [10736/D11] | 51.7
COc1cccc(C=C2C(=O)Nc3c(Br)cc(Br)cc32)c1 [10736/A10] | −0.1
O=C1Nc2ccc(I)cc2C1=Cc1cccc(Cl)c1 [10736/B06] | 12.6
O=C1Nc2ccc(CCCl)cc2C1=Cc1cccc2ccccc12 [10735/G09] | 19.8
Cc1c(Br)cc(Br)c2c1C(=Cc1ccc(N(C)C)cc1)C(=O)N2 [10719/H08] | 2.9
CCc1ccc(C=C2C(=O)Nc3c(Br)cc(Br)cc32)cc1 [10736/A09] | 20.0
Cc1ccccc1C=C1C(=O)Nc2c(Br)cc(Br)c(C)c21 [10735/H02] | 3.6
CNS(=O)(=O)c1ccc2c(c1)C(=Cc1ccc(Cl)cc1)C(=O)N2 [10736/D02] | 1.8
CNS(=O)(=O)c1ccc2c(c1)C(=Cc1ccc(C)cc1)C(=O)N2 [10736/D05] | −7.9
Cc1c(Br)ccc2c1C(=Cc1ccccc1Cl)C(=O)N2 [10736/C11] | −4.5
CNS(=O)(=O)c1ccc2c(c1)C(=Cc1ccccc1C(F)(F)F)C(=O)N2 [10736/D03] | −3.7
CNS(=O)(=O)c1ccc2c(c1)C(=Cc1cccc(OC)c1)C(=O)N2 [10736/D10] | 10.5
Cc1cccc(C=C2C(=O)Nc3ccc(Br)c(C)c32)c1 [10736/C04] | 90.2
O=C1Nc2ccc(I)cc2C1=Cc1cccc(F)c1 [10736/B07] | 8.4
O=C1Nc2c(Br)cc(Br)cc2C1=Cc1cccc(F)c1 [10736/A07] | 30.2
Cc1c(Br)ccc2c1C(=Cc1cccc(Cl)c1)C(=O)N2 [10736/C06] | 4.8
O=C1Nc2ccc(CCCl)cc2C1=Cc1ccc(-c2ccccc2)cc1 [10735/G11] | 2.9
CCc1ccc(C=C2C(=O)Nc3ccc(S(=O)(=O)NC)cc32)cc1 [10736/D09] | 66.8
Cc1cccc(C=C2C(=O)Nc3ccc(S(=O)(=O)Nc4ccc(C(F)(F)F)cc4)cc32)c1 [10736/E04] | −17.2
Cc1c(Br)cc(Br)c2c1C(=Cc1cc(C(F)(F)F)cc(C(F)(F)F)c1)C(=O)N2 [10735/H06] | −14.2
O=C1Nc2ccc(S(=O)(=O)Nc3ccc(C(F)(F)F)cc3)cc2C1=Cc1ccccc1C(F)(F)F [10736/E03] | 90.2
